Assay results reported in patent US20220009920A1 (GB005, Inc., priority 2020, published 2022).

Tests used:
Experiment in all cases: Large panel kinase profiling
Type in all cases: biochemical
Conditions in all cases: 1 μM test article, 1 mM ATP
[1] = biological target: BRAF(V599E) (Homo sapiens, UniProt P15056, V600E)
How it was run: (§1)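 Kinase activity was followed with the PhosphoSens CSox-Sensor platform, testing compound at 1 μM in the presence of 1 mM ATP. Reactions ran at 30° C. and fluorescence (Ex 360 nm/Em 485 nm) was read kinetically every 1 min.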

[2] = biological target: T1, CAMK2D (Homo sapiens, UniProt Q13557)
T1 construct: AssayQuant Technologies, Inc. (ran the panel)
T1 sequence (Q13557 whole entry, species assumed): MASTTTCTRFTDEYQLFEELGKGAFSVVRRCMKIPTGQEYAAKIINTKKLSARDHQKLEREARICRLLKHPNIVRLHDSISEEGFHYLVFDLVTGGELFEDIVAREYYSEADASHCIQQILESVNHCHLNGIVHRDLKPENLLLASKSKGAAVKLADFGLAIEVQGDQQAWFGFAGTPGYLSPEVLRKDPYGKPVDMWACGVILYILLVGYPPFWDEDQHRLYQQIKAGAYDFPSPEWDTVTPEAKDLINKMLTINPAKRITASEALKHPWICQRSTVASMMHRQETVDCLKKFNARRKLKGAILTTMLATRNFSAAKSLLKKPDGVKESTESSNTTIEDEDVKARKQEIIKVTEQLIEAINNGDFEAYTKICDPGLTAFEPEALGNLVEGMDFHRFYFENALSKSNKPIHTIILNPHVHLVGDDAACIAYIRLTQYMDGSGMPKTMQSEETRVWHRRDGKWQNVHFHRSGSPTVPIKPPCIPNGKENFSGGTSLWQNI
How it was run: as §1

[3] = biological target: T2, CDK1/B1 (Homo sapiens, UniProt P06493)
T2 construct: AssayQuant Technologies, Inc. (ran the panel)
T2 sequence (P06493 whole entry, species assumed): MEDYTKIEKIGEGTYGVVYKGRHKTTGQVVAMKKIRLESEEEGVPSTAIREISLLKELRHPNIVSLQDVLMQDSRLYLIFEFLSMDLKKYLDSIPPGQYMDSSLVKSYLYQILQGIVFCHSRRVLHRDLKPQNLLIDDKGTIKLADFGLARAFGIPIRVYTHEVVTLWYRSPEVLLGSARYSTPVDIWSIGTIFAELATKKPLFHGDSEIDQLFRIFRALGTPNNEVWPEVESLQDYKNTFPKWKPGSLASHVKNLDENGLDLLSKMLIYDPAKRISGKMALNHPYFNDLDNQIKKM
T2 sequence (P14635 whole entry partner, species assumed): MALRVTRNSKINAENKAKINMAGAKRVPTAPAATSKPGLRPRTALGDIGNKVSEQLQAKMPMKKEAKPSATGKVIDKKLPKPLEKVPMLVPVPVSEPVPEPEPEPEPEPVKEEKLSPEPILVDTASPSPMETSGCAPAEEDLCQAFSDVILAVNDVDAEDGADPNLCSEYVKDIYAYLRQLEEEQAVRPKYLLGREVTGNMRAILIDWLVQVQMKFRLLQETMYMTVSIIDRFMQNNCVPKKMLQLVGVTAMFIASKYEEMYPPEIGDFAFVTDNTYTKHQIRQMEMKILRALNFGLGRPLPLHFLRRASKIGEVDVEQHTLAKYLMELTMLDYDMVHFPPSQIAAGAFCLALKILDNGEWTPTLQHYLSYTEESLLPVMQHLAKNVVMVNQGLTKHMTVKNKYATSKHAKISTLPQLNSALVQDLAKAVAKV
How it was run: as §1

[4] = biological target: T3, CDK2/E1 (Homo sapiens, UniProt P24941)
T3 construct: AssayQuant Technologies, Inc. (ran the panel)
How it was run: as §1

[5] = biological target: T4, EIF2AK2/PKR (Homo sapiens, UniProt P19525)
T4 construct: AssayQuant Technologies, Inc. (service laboratory)
T4 sequence (P19525 whole entry): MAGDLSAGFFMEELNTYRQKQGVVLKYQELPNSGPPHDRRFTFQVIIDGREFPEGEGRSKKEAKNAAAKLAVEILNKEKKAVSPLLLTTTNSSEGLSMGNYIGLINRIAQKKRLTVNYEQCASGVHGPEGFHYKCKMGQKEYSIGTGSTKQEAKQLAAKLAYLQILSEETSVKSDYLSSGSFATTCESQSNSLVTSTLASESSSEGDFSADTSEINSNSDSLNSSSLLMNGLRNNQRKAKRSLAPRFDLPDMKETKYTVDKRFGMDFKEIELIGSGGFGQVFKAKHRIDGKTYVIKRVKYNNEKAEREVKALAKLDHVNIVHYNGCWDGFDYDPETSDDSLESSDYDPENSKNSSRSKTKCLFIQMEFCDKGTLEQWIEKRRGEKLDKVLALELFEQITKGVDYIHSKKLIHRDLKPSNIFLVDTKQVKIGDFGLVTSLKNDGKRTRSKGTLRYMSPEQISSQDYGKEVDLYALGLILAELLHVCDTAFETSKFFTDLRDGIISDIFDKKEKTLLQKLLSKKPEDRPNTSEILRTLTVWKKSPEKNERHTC
How it was run: as §1

[6] = biological target: T5, GRK3 (Homo sapiens, UniProt P35626)
T5 construct: AssayQuant Technologies, Inc. (service provider)
T5 sequence (P35626 1-688): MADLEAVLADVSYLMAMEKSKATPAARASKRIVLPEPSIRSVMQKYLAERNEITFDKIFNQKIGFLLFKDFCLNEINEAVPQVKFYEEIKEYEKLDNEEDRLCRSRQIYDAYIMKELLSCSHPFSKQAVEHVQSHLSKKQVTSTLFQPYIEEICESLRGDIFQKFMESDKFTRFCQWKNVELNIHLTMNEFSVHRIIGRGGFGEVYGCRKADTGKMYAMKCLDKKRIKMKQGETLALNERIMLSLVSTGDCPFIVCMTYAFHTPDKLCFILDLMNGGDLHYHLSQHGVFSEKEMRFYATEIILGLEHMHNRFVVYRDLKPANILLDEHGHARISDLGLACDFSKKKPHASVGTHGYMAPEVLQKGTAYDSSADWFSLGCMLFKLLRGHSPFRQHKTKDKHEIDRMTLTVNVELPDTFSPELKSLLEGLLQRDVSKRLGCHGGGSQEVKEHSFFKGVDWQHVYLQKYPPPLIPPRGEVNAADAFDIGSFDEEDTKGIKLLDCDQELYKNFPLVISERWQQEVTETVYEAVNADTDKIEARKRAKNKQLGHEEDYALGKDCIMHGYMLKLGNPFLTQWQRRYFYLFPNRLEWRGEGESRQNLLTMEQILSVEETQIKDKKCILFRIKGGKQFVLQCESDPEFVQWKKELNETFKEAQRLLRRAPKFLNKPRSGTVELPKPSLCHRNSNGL
How it was run: as §1

[7] = biological target: T6, INSR (Homo sapiens, UniProt P06213)
T6 construct: AssayQuant Technologies, Inc. (service provider)
T6 sequence (P06213 28-1382, species assumed): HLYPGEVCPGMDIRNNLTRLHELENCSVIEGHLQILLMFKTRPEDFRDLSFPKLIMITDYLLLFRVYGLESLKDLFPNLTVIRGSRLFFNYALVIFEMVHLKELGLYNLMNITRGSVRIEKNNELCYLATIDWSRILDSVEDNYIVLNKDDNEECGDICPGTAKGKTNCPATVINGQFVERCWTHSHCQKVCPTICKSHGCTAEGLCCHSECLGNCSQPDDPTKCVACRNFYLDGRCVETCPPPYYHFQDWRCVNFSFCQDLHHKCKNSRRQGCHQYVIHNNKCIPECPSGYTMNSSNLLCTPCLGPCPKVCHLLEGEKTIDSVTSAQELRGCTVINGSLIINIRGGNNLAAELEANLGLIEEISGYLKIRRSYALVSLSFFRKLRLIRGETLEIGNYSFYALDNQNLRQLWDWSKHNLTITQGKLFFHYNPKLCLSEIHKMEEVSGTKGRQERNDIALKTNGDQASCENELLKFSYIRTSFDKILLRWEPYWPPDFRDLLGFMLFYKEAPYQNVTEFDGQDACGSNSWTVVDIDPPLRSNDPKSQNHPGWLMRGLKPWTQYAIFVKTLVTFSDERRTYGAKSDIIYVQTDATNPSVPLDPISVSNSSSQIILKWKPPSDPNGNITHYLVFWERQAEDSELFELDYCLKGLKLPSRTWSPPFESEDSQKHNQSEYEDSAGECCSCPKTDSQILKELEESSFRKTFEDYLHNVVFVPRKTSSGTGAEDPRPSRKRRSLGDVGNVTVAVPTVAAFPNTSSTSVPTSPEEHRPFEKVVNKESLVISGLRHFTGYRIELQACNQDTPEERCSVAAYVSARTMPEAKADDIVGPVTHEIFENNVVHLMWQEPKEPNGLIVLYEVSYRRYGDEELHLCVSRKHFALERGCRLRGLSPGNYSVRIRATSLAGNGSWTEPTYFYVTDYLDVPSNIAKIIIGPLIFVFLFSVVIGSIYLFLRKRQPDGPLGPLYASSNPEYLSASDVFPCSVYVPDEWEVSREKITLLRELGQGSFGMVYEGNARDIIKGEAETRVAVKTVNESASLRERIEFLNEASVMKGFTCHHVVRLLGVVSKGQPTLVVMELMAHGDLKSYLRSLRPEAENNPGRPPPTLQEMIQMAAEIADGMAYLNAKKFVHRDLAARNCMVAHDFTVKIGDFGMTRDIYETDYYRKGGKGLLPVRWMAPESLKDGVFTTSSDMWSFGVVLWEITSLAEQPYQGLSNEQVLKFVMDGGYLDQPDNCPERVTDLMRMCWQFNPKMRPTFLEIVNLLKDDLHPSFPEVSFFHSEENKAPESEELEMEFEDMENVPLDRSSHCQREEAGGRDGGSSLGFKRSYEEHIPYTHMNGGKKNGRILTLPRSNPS
How it was run: as §1

[8] = biological target: T7, JAK2(JH1) (Homo sapiens, UniProt O60674)
T7 construct: JAK2(JH1)
T7 sequence (O60674 849-1124 limits assumed, species assumed): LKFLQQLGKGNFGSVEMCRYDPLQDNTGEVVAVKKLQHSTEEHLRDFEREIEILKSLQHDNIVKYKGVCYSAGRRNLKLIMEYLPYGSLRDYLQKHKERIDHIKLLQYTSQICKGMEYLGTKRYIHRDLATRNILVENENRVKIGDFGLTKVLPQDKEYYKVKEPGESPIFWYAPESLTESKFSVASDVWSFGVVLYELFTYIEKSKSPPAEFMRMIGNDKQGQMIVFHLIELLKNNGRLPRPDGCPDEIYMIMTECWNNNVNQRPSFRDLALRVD
How it was run: as §1

[9] = biological target: T8, MYLK3 (Homo sapiens, UniProt Q32MK0)
T8 construct: AssayQuant Technologies, Inc. (assay service)
T8 sequence (Q32MK0 1-819): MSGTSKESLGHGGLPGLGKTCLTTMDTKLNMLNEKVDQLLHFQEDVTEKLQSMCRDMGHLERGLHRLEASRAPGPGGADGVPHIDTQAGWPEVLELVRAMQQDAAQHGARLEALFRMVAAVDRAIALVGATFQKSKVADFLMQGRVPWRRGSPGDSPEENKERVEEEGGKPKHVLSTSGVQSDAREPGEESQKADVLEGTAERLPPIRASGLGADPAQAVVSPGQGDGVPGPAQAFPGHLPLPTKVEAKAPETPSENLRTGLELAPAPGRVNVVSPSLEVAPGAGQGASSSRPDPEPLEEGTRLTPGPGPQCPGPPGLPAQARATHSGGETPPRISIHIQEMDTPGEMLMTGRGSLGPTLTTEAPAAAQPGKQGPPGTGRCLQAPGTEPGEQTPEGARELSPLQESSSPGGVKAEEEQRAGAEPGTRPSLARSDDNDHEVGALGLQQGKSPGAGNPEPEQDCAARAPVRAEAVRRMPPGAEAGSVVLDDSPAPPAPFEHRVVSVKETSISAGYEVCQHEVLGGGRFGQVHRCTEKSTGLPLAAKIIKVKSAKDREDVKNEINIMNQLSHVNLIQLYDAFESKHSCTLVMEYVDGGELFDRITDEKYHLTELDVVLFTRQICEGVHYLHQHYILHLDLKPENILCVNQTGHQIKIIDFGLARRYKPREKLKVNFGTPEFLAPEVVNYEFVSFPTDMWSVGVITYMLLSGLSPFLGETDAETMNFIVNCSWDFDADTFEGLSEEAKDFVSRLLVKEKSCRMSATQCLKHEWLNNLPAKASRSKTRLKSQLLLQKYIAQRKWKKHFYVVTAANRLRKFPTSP
How it was run: as §1

[10] = biological target: T9, NEK2 (Homo sapiens, UniProt P51955)
T9 construct: AssayQuant Technologies, Inc. (assay service)
T9 sequence (P51955 1-445): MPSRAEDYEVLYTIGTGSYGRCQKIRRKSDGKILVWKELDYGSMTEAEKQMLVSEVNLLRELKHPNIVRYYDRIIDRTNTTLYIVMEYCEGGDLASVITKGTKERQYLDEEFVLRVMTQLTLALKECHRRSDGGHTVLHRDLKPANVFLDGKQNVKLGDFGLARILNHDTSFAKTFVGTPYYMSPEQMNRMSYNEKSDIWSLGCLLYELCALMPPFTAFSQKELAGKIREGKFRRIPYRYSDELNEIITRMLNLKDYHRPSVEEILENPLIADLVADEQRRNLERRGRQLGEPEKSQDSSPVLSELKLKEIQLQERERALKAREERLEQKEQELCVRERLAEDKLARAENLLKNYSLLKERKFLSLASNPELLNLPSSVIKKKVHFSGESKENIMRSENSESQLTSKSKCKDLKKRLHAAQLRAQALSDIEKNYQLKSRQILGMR
How it was run: as §1

[11] = biological target: RPS6KA2/RSK3 (Homo sapiens, UniProt Q15349)
RPS6KA2/RSK3, sequence (Q15349 whole entry): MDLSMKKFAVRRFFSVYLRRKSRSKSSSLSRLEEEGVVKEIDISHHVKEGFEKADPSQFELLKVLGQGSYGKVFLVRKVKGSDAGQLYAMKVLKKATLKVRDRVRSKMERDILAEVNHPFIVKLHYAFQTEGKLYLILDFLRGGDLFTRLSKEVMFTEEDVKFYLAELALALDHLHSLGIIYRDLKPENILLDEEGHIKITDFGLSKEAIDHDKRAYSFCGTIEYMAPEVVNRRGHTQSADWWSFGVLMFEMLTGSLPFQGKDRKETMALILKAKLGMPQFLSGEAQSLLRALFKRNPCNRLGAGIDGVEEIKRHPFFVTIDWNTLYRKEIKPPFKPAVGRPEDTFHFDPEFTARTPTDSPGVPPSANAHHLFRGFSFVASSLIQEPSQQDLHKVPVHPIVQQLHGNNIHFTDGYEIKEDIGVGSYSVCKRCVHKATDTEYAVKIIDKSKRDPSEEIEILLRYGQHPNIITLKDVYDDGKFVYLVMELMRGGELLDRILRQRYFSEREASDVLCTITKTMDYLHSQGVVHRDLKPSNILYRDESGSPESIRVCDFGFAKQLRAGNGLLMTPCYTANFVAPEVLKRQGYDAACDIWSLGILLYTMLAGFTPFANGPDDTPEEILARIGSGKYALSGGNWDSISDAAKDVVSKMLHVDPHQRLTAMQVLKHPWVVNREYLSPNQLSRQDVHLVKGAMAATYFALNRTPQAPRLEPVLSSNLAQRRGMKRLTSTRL
How it was run: as §1

BRAF(V599E), sequence (P15056 whole entry V600E): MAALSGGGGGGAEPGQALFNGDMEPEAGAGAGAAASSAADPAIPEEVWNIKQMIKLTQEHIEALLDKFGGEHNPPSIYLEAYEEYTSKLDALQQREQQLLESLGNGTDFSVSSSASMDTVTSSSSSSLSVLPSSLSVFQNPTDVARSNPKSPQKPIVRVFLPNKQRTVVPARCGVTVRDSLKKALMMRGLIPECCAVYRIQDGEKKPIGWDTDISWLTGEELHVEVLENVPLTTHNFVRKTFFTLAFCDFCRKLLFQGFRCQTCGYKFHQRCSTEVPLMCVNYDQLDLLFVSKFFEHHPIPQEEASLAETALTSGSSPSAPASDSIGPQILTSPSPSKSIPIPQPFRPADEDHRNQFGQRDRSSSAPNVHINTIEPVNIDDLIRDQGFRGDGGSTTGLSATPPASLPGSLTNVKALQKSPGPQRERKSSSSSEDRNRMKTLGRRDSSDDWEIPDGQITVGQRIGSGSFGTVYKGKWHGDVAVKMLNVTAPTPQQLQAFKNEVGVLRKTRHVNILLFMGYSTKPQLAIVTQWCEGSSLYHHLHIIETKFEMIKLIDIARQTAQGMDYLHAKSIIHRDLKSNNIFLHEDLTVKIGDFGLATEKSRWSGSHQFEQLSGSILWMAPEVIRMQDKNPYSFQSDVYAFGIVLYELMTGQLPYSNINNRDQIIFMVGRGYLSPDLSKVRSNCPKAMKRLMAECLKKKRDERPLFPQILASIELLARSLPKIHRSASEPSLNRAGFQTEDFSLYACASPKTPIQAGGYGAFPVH

SMILES	inhibition at 1 µM [1] [%]	inhibition at 1 µM [2] [%]	inhibition at 1 µM [3] [%]	inhibition at 1 µM [4] [%]	inhibition at 1 µM [5] [%]	inhibition at 1 µM [6] [%]	inhibition at 1 µM [7] [%]	inhibition at 1 µM [8] [%]	inhibition at 1 µM [9] [%]	inhibition at 1 µM [10] [%]	inhibition at 1 µM [11] [%]
C=CC(=O)N1CCCC(c2c(F)cc(C(N)=O)c3[nH]c4c(c23)CCCCC4)C1 (single isomer, unassigned) [Compound 5-6]	-13.2	1.1	-13.7	-7.3	-28	-25.6	10.3	11.4	21.5	-26.5	1.7
C=CC(=O)N1CCC[C@@H](c2c(F)cc(C(N)=O)c3[nH]c4c(c23)CCC4)C1 [Compound 10-2, (S)-8-(1-acryloylpiperidin-3-yl)-7-fluoro-1,2,3,4-tetrahydrocyclo-penta[b]indole-5-carboxamide]	4.3	-10.7	-3.8	7	65.5	-42.7	-6	-0.8	14.9	10.6	-38
C=CC(=O)N1CCC[C@@H](c2c(F)cc(C(N)=O)c3[nH]c4c(c23)CC2(CC4)CC2)C1 [Compound 6-2, (S)-5-(1-acryloylpiperidin-3-yl)-6-fluoro-1,2,4,9-tetrahydrospiro[carbazole-3,1′-cyclopropane]-8-carboxamide]	-4.9	8.4	-9.5	-12.9	-1.6	-48.3	-6.6	10.3	9.9	-1.4	-47.9
